Data: ChEMBL document CHEMBL1122060, “Synthesis and some pharmacological properties of Z-Tyr(SO3H)-Met-Gly-Trp-Met-Asp(Phe-NH2)-OH, a 32-beta-aspartyl analogue of cholecystokinin (pancreozymin) 27-33” (1982)
*1 amine or outer side, *2 acyl side, *3 side chain or, on linkers, in order; H or OH if unused. Where a SMILES comes first, the peptide text is derived from it. [ ]: non-standard residue; d: D form. βAsp = O=C(O)[C@H](CC(=O)[*:2])N[*:1]

Legend:
Format in all cases: functional
Felis catus [1] = species on record: Felis catus; experiment: Pancreatic response measured as optical density of the pancreatic juice secreted 30 minutes following injection of 1 ug and diluted to 25 mL with physiological saline.
Felis catus [2] = species on record: Felis catus; experiment: Pancreatic response measured as optical density of the pancreatic juice secreted 30 minutes following injection of 0.5 ug and diluted to 25 mL with physiological saline.
Felis catus [3] = species on record: Felis catus; experiment: Pancreatic response measured as optical density of the pancreatic juice secreted 30 minutes following injection of 2 ug and diluted to 25 mL with physiological saline.

`CSCC[C@H](NC(=O)[C@H](Cc1c[nH]c2ccccc12)NC(=O)CNC(=O)[C@H](CCSC)NC(=O)[C@@H](N)Cc1ccc(O)cc1)C(=O)N[C@@H](CC(=O)N[C@@H](Cc1ccccc1)C(N)=O)C(=O)O` (H-YMGWM[βAsp]F-NH2) was tested, and the Pancreatic response (Felis catus [1]) was 0.97, the Pancreatic response (Felis catus [2]) was 0.46 and the Pancreatic response (Felis catus [3]) was 1.47.
